# Test results as given in patent US20210071180A1, “MICRORNA 584-5P COMPOSITIONS AND METHODS FOR TREATING CANCER” (BOARD OF REGENTS, THE UNIVERSY OF TEXAS SYSTEM, priority 2018, published 2021).
# Experiments:
# D556Med cells = test: c-Myc overexpression rescue, cell viability/clonogenic/migration; assay type: cell-based; settings: cells transfected with c-Myc expression vector
# Experimental: FIG. 15A depicts a photomicrograph showing migrated MB cells transfected with control plasmid, c-Myc overexpression plasmid or c-Myc overexpression plasmid+miR-584-5p mimic.
# Because c-Myc supports cancer stem cell growth, promotes radioresistance (Gravina, G. L. et al. Radiat Res 185, 411-422, (2016)), and has elevated levels in VCR-resistant cancer cells (He, Y., Zhang, J., Zhang, J. & Yuan, Y. Chin Med J (Engl) 113, 848-851 (2000)), it was tested whether miR-584-5p and its target genes may regulate c-Myc-amplified MB growth and therapy sensitization by targeting c-Myc levels/functions. […] In FIG. 14D, the p-values were calculated using standard Student t-tests. Error bars represent mean±SEM. Because no predicted miR-584-5p binding site exists in the c-Myc 3′-UTR, miR-584-5p probably regulates c-Myc levels indirectly. To test that possibility, it was assessed whether miR-584-5p target genes may regulate c-Myc levels in MB. Moreover, eIF4E1 (not eIF4E3) induced c-Myc protein expression in diffuse B-cell lymphoma cells (Landon, A. L. et al. Nat Commun 5, 5413, (2014)). […] Cell viability was assessed using alamarBlue. The p-value was calculated using one-way ANOVA followed by Sidak's multiple-comparisons test. […]
# MB cells = test: Immunofluorescence of mitotic spindles / mitotic catastrophe; assay type: cell-based
# Experimental: DNA is stained with DAPI (blue), whereas spindle is stained with β-tubulin (red) (below).
# Immunofluorescence and Western blot analysis Immunofluorescence analyses was carried out on cells fixed in 4% paraformaldehyde (Imam, J. S. et al. PLoS One 7, e52397, (2012)). […]
# VCR disrupts the integrity of the mitotic spindle and destabilizes microtubules (George, P., Journey, L. J. & Goldstein, M. N. J Natl Cancer Inst 35, 355-375 (1965)). […] In FIG. 12A, the p-values were calculated using standard Student t-tests. […] The p-values were calculated using standard Student t-tests. […] In FIG. 11F, the p-values were calculated using standard Student t-tests. […] In FIG. 11H, The p-values were calculated using standard Student t-tests. […] Quantitative real-time PCR. […]
substance,measurement,setting,value
miR-584-5p: microRNA mimic; nucleotide sequence UUAUGGUUUGCCUGGGACUGAG (SEQ ID NO: 1); purchased from Thermofisher (chemistry not given here),growth-promoting effect of c-Myc overexpression,D556Med cells,rescues cancer growth-promoting effects of c-Myc
same,mitotic catastrophe features,MB cells; miR-584-5p-overexpressing MB cells,"many cells with multipolar metaphase/anaphase, spindles with unorganized poles, micronuclei, and aneuploidy"
same,mitotic spindle defects,MB cells; β-tubulin/DAPI staining,variety of mitotic spindle defects
